47 molecules from patent publication US11667636B2, “Modulators of Mas-related G-protein receptor X2 and related products and methods” (Escient Pharmaceuticals, Inc., priority 2020, dated 2023) can be followed below.

In the assay the target is T1, human MRGPRX2 (Homo sapiens, UniProt Q96LB1).
T1 construct: expressed in transfected cells
T1 sequence (Q96LB1 1-330): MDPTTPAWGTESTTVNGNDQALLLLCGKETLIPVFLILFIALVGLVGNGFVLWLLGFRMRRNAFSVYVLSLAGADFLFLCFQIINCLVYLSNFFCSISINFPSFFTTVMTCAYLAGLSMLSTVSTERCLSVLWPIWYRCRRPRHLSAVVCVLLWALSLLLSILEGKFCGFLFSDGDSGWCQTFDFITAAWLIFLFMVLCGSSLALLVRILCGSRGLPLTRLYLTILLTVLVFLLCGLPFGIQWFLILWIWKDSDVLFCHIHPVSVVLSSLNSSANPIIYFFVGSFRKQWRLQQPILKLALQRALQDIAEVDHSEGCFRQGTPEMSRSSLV
Put plainly: MRGPRX2 Activity: IP-One HTRF antagonist assay in CHO cells stably expressing human MRGPRX2, versus Cortistatin-14. It is filed as cell-based. To be noted: versus 0.3 uM Cortistatin-14 agonist, IP-1 HTRF, read-out: MRGPR2 Antagonist Activity. As for the experimental part: CHO cells stably transfected to express human MRGPRX2 were maintained in an incubator at 37° C. with 5% CO2 and grown in F12 (HAM) media with 10% fetal bovine serum (FBS), 1% Glutamax, 1% penicillin/streptomycin, 800 μg/mL Geneticin (G418), and 300 μg/mL Hygromycin B. Cells were plated in a 384-well assay plate at 20,000 cells per well in 12 μL of Opti-MEM and kept in an incubator overnight. On the day of the assay, compounds solubilized at 10 mM in DMSO were added as a 10-point curve (30 uM final top concentration with 1:3 serial dilutions) using a Tecan D300E digital dispenser. Agonists were diluted in assay buffer (final concentrations of 5.7 mM Tris-HCl, 43 mM NaCl, 50 mM LiCl, pH=8) and 2 μL of the agonist Cortistatin-14 (CPC Scientific, catalog CORT-002) are added to each well. Final concentrations of agonists were 0.3 μM Cortistatin-14. Final concentrations of DMSO were kept consistent across the plate. Plates were incubated in the dark for 1 hr at 37° C. and then for 1 hr at room temperature. IP-1 standards and HTRF detection reagents were added according to the IP-One-Gq Kit purchased from Cisbio (part number 62IPAPEJ) and incubated in the dark for 1 hr at room temperature. The plate was read on a Molecular Devices SpectraMax iD5 plate reader. The HTRF ratio was calculated from the raw data and graphed using GraphPad Prism to calculate an IC50 value for each compound.
The activity ranges are denoted as follows: “+++++” denotes antagonist activity <50 nM; “++++” denotes antagonist activity between 51 and 100 nM; “+++” denotes activity between 101 and 500 nM; “++” denotes activity between 501 and 1000 nM; and “+” denotes activity >1000 nM
Background: Time-resolved FRET reads energy transfer from a long-lived donor to a nearby acceptor.
Take `O=C(N[C@H]1CC[C@@H](Nc2cccc3nc(C(F)(F)F)sc23)CC1)c1ccc(F)cc1` [1-19]: the IC50 is 51 to 100 nM.
Consider `Cn1cc(C(=O)N[C@H]2CC[C@@H](Nc3cccc4nc(C(F)F)cn34)CC2)c(NCC(F)F)n1` [2-288], for which the IC50 is below 50 nM.
Under `CC(C)S(=O)(=O)Nc1ccc(C(=O)N[C@H]2CC[C@@H](Nc3cccc4nc(C(F)(F)F)cn34)CC2)cc1` [2-203] stands below 50 nM; under `N#Cc1cccc(C(=O)N[C@H]2CC[C@@H](Nc3cccc4sc(C(F)(F)F)cc34)CC2)c1` [Example 5, 3-cyano-N-((1 S,4S)-4-((2-(trifluoromethyl)benzo[b]thiophen-4-yl)amino)cyclohexyl)benzamide], 101 to 500 nM; under `Cn1cc(C(=O)N[C@H]2CC[C@@H](Nc3cccc4nc(C(F)(F)F)cn34)CC2)c(C2CC2)n1` [2-191], 51 to 100 nM.
For `COc1ccc(C(=O)N[C@H]2CC[C@@H](Nc3cc(C)cc4nc(C(F)(F)F)cn34)CC2)cc1` [1-23], the IC50 was in the range of 101 to 500 nM.
With `CC(C)n1cc(C(=O)N[C@H]2CC[C@@H](Nc3cccc4nc(C(F)(F)F)cn34)CC2)c(Cl)n1` [2-294], the IC50 is below 50 nM.
`O=C(N[C@H]1CC[C@@H](Nc2cccc3nc(C(F)(F)F)cn23)CC1)c1c[nH]nc1C1CC1` [2-141]: the IC50 was below 50 nM.
Consider `Cc1ncc(C(=O)N[C@H]2CC[C@@H](Nc3cccc4nc(C(F)(F)F)cn34)CC2)n1C` [2-134], for which the IC50 was 101 to 500 nM.
Under `CC(=O)Nc1cccc(C(=O)N[C@H]2CC[C@@H](Nc3cccc4sc(C(F)(F)F)cc34)CC2)c1` [2-2] stands above 1000 nM.
Consider `CCOc1cc(C(=O)N[C@H]2CC[C@@H](Nc3cccc4nc(C(F)(F)F)cn34)CC2)ccn1` [2-15], for which the IC50 was in the range of 101 to 500 nM.
Under `CN(C)c1ccc(C(=O)N[C@H]2CC[C@@H](Nc3cccc4nc(C(F)(F)F)cn34)CC2)c(F)c1` [2-159] stands 51 to 100 nM; under `Cn1cc(C(=O)NC2CCC(Nc3cccc4nc(C(F)(F)F)cn34)CC2)c2ccccc21` (centres unmarked) [2-289], below 50 nM.
Under `CN(CC(F)F)c1ccc(C(=O)N[C@H]2CC[C@@H](Nc3cccc4nc(C(F)F)cn34)CC2)cc1` [2-274] stands below 50 nM.
Regarding `O=C(N[C@H]1CC[C@@H](Nc2cccc3nc(C(F)(F)F)cn23)CC1)c1cnn(CC(F)F)c1C(F)F` [2-284], the IC50 fell in the range of 101 to 500 nM.
In the case of `COc1ccc(C(=O)N[C@@H]2CCC[C@H](Nc3cc(F)cc4nc(C(F)(F)F)cn34)C2)cc1` [1-31] it was 51 to 100 nM; in that of `O=C(N[C@H]1CC[C@@H](Nc2cccc3nc(C(F)F)cn23)CC1)c1ccnc(NCC(F)F)c1` [2-150], below 50 nM; in that of `COc1ccc(C(=O)N[C@@H]2CCC[C@H](Nc3cccc4sc(C(F)(F)F)cc34)C2)cc1` [Example 2, 4-methoxy-N-((1R,3S)-3-((2-(trifluoromethyl)benzo[b]thiophen-4-yl)amino)cyclohexyl)benzamide], 101 to 500 nM.
In the case of `CN(C)c1ccc(C(=O)N[C@H]2CC[C@@H](Nc3cccc4nc(C#N)cn34)CC2)cc1` [2-258] it was below 50 nM.
Take `Cc1n[nH]c2c(C(=O)N[C@H]3CC[C@@H](Nc4cccc5nc(C(F)(F)F)cn45)CC3)ccnc12` [2-247]: the IC50 lay within 101 to 500 nM.
With `O=C(N[C@H]1CC[C@@H](Nc2cccc3nc(C(F)(F)F)cn23)CC1)c1cncc2cn[nH]c12` [2-241], the IC50 was in the range of 101 to 500 nM.
Under `O=C(N[C@H]1CC[C@@H](Nc2cccc3nc(C(F)(F)F)cn23)CC1)c1c[nH]nc1C(F)(F)F` [2-177] stands below 50 nM; under `COc1ccc(C(=O)N[C@@H]2CCC[C@H](Nc3cccc4sc(C#N)cc34)C2)cc1` [1-16], 101 to 500 nM.
In the case of `O=C(N[C@H]1CC[C@@H](Nc2cccc3nc(C(F)(F)F)cn23)CC1)c1c[nH]c2ccccc12` [2-201] it was below 50 nM; in that of `O=C(N[C@H]1CC[C@@H](Nc2cccc3nc(C(F)F)cn23)CC1)c1ccc(OCCF)cc1` [2-218], below 50 nM; in that of `O=C(N[C@H]1CC[C@@H](Nc2cccc3sc(C(F)(F)F)cc23)CC1)c1cc2ccccn2n1` [2-1], 51 to 100 nM.
In the case of `COc1ccc(C(=O)N[C@@H]2CCC[C@H](Nc3cccc4sc(OC)cc34)C2)cc1` [1-14] it was above 1000 nM; in that of `CC(=O)c1cc2c(N[C@H]3CC[C@@H](NC(=O)c4ccc(F)cc4)CC3)cccc2s1` [1-5], 101 to 500 nM.
Take `COc1ccc(C(=O)N[C@H]2CC[C@@H](Nc3cccc4nc(C(F)F)cn34)CC2)c(F)c1` [2-27]: the IC50 is 101 to 500 nM.
Under `COc1ccc(C(=O)N[C@H]2CC[C@@H](Nc3cccc4sc(C(F)(F)F)nc34)CC2)cc1` [1-17] stands above 1000 nM; under `COc1ccc(C(=O)N[C@@H]2CCC[C@H](Nc3cccc4sc(C(C)=O)cc34)C2)cc1` [1-4], above 1000 nM.
Under `COc1cccc2cc(C(=O)N[C@H]3CC[C@@H](Nc4cccc5nc(C(F)(F)F)cn45)CC3)oc12` [2-166] stands 51 to 100 nM.
In the case of `CC(C)Oc1ccc(C(=O)N[C@H]2CC[C@@H](Nc3cccc4nc(C(F)(F)F)cn34)CC2)cc1Cl` [2-207] it was 101 to 500 nM; in that of `Cn1ncc(C(=O)N[C@H]2CC[C@@H](Nc3cccc4nc(C(F)F)cn34)CC2)c1NCC(F)F` [2-270], 51 to 100 nM; in that of `CNc1ccccc1C(=O)N[C@H]1CC[C@@H](Nc2cccc3nc(C(F)F)cn23)CC1` [2-276], 51 to 100 nM.
In the case of `NS(=O)(=O)c1ccc(C(=O)N[C@H]2CC[C@@H](Nc3cccc4nc(C(F)(F)F)cn34)CC2)cc1` [2-204], the IC50 is below 50 nM.
In the case of `O=C(N[C@H]1CC[C@@H](Nc2cccc3nc(C(F)F)cn23)CC1)c1ccc(C(F)F)cc1` [2-285] it was 51 to 100 nM; in that of `O=C(N[C@H]1CC[C@@H](Nc2cccc3nc(C(F)F)cn23)CC1)c1ccc(Cl)cc1Cl` [2-275], 101 to 500 nM.
As for `O=C(N[C@H]1CC[C@@H](Nc2cccc3nc(C(F)(F)F)cn23)CC1)c1n[nH]c2ccccc12` [2-9], the IC50 lay within 101 to 500 nM.
Under `Nc1nn(CC(F)F)cc1C(=O)N[C@H]1CC[C@@H](Nc2cccc3nc(C(F)(F)F)cn23)CC1` [Example 6, 3-amino-1-(2,2-difluoroethyl)-N-[4-[[2-(trifluoromethyl)imidazo[1,2-a]pyridin-5 yl]amino]cyclohexyl]pyrazole-4-carboxamide] stands below 50 nM; under `O=C(N[C@H]1CC[C@@H](Nc2cccc3nc(C(F)(F)F)cn23)CC1)c1ccnc2[nH]ccc12` [2-168], below 50 nM; under `CNc1ccc(C(=O)N[C@H]2CC[C@@H](Nc3cccc4nc(C(F)F)cn34)CC2)cc1` [2-195], below 50 nM.
In the case of `Cc1c(C(=O)N[C@H]2CC[C@@H](Nc3cccc4nc(C(F)(F)F)cn34)CC2)c2ccccc2n1C` [2-227] it was 101 to 500 nM; in that of `N#Cc1nn(C(F)F)cc1C(=O)N[C@H]1CC[C@@H](Nc2cccc3nc(C(F)(F)F)cn23)CC1` [2-229], below 50 nM.
Under `O=C(N[C@H]1CC[C@@H](Nc2cccc3nc(C(F)(F)F)cn23)CC1)c1ccc(-n2cnnn2)cc1` [2-202] stands below 50 nM.
On to `COc1ccc(C(=O)N[C@@H]2CCC[C@H](Nc3cccc4oc(C(F)(F)F)nc34)C2)cc1` [Example 4, 4-methoxy-N-[(1R,3S)-3-[[2-(trifluoromethyl)-1,3-benzoxazol-4-yl]amino]cyclohexyl]benzamide], for which the IC50 is 501 to 1000 nM.
As to `O=C(N[C@H]1CC[C@@H](Nc2cccc3nc(C(F)(F)F)cn23)CC1)c1ccnc2cn[nH]c12` [2-126], the IC50 is below 50 nM.
